From PubChem BioAssay AID1963967 (Molecular Pharmacology Branch, DTP, NCI, 2024)

Test system: 855422-203-R-J1-PDC spheroids with HUVEC/MSC, viability
Assay: Anticancer human tumor 855422-203-R-J1-PDC patient-derived bladder carcinoma cell line growth inhibition [PI3K]
Conditions: for IC50: curve of first compound; for viability, T/C: stronger effect = lower value
Method in brief: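 Agents were dosed from a top concentration near clinical Cmax (otherwise 10 microM) in half-log decrements, alone or combined with PI3K inhibitors. The spheroids contain tumor cells plus endothelial (HUVEC) and MSC stroma; viability is measured.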

[1] = second compound 0.0316 µM, first compound 0.0316 µM
[2] = second compound 0.0316 µM, first compound 0.1 µM
[3] = second compound 0.0316 µM, first compound 0.316 µM
[4] = second compound 0.0316 µM, first compound 1 µM
[5] = second compound 0.0316 µM, first compound 3.16 µM
[6] = second compound 0.0316 µM, first compound 10 µM
[7] = second compound 0.1 µM, first compound 0.0316 µM
[8] = second compound 0.1 µM, first compound 0.1 µM
[9] = second compound 0.1 µM, first compound 0.316 µM
[10] = second compound 0.1 µM, first compound 1 µM
[11] = second compound 0.1 µM, first compound 3.16 µM
[12] = second compound 0.1 µM, first compound 10 µM
[13] = second compound 0.316 µM, first compound 0.0316 µM
[14] = second compound 0.316 µM, first compound 0.1 µM
[15] = second compound 0.316 µM, first compound 0.316 µM
[16] = second compound 0.316 µM, first compound 1 µM
[17] = second compound 0.316 µM, first compound 3.16 µM
[18] = second compound 0.316 µM, first compound 10 µM
[19] = second compound 1 µM, first compound 0.0316 µM
[20] = second compound 1 µM, first compound 0.1 µM
[21] = second compound 1 µM, first compound 0.316 µM
[22] = second compound 1 µM, first compound 1 µM
[23] = second compound 1 µM, first compound 3.16 µM
[24] = second compound 1 µM, first compound 10 µM
[25] = second compound 0.00316 µM, first compound 0.0316 µM
[26] = second compound 0.00316 µM, first compound 0.1 µM
[27] = second compound 0.00316 µM, first compound 0.316 µM
[28] = second compound 0.00316 µM, first compound 1 µM
[29] = second compound 0.00316 µM, first compound 3.16 µM
[30] = second compound 0.00316 µM, first compound 10 µM
[31] = second compound 0.01 µM, first compound 0.0316 µM
[32] = second compound 0.01 µM, first compound 0.1 µM
[33] = second compound 0.01 µM, first compound 0.316 µM
[34] = second compound 0.01 µM, first compound 1 µM
[35] = second compound 0.01 µM, first compound 3.16 µM
[36] = second compound 0.01 µM, first compound 10 µM
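Note: agents incubated with spheroids for one week before read-out.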
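Throughout, for viability, T/C: 100% = DMSO vehicle-treated control wells.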

`CC(C)NCC(C(=O)N1CCN(c2ncnc3c2C(C)CC3O)CC1)c1ccc(Cl)cc1` (stereo unspecified) + CC(Nc1ncnc2nc[nH]c12)c1cc2cccc(Cl)c2c(=O)n1-c1ccccc1 showed an IC50 (second compound 0.0316 µM) of 1160 nM, an IC50 (second compound 0.1 µM) of 1120 nM and an IC50 (second compound 0.316 µM) of 1130 nM. The IC50 (second compound 1 µM) was 1130 nM, the IC50 (second compound 3.16 µM) was 1280 nM and the IC50 (second compound 10 µM) was 937 nM. The viability, T/C [1] was 114%, the viability, T/C [2] was 83.2% and the viability, T/C [3] was 83.9%. The viability, T/C [4] was 46.1%, the viability, T/C [5] was 34.5% and the viability, T/C [6] was 16.8%. For the same compound, the viability, T/C [7] was 103%, the viability, T/C [8] was 88.2% and the viability, T/C [9] was 70%. For the same compound, the viability, T/C [10] was 51.4%, the viability, T/C [11] was 34.9% and the viability, T/C [12] was 19%. It also gave a viability, T/C [13] of 101%, a viability, T/C [14] of 90.4% and a viability, T/C [15] of 75.5%. The viability, T/C [16] was 51.7%, the viability, T/C [17] was 31.9% and the viability, T/C [18] was 18.8%. The viability, T/C [19] was 88.6%, the viability, T/C [20] was 93% and the viability, T/C [21] was 81.3%. For the same compound, the viability, T/C [22] was 50.1%, the viability, T/C [23] was 32.8% and the viability, T/C [24] was 19.5%. For the same compound, the viability, T/C (second compound 3.16 µM, first compound 0.0316 µM) was 88.4%, the viability, T/C (second compound 3.16 µM, first compound 0.1 µM) was 81.8% and the viability, T/C (second compound 3.16 µM, first compound 0.316 µM) was 73.1%. For the same compound, the viability, T/C (second compound 3.16 µM, first compound 1 µM) was 47.6%, the viability, T/C (second compound 3.16 µM, first compound 3.16 µM) was 40% and the viability, T/C (second compound 3.16 µM, first compound 10 µM) was 16.3%. It also gave a viability, T/C (second compound 10 µM, first compound 0.0316 µM) of 85.3%, a viability, T/C (second compound 10 µM, first compound 0.1 µM) of 81.9% and a viability, T/C (second compound 10 µM, first compound 0.316 µM) of 69.8%. The viability, T/C (second compound 10 µM, first compound 1 µM) was 47.1%, the viability, T/C (second compound 10 µM, first compound 3.16 µM) was 30.1% and the viability, T/C (second compound 10 µM, first compound 10 µM) was 15.2%.

For `Cn1ncc(Cl)c1-c1cc(C(=O)NC(CN)Cc2cccc(F)c2)sc1Cl` (stereo unspecified) + CC(Nc1ccc2c(c1)OCCn1cc(N3C(=O)OCC3C(F)F)nc1-2)C(N)=O, the IC50 (second compound 0.00316 µM) was 614 nM, the IC50 (second compound 0.01 µM) was 707 nM and the IC50 (second compound 0.0316 µM) was 561 nM. For the same compound, the IC50 (second compound 0.1 µM) was 257 nM, the IC50 (second compound 0.316 µM) was 35.2 nM and the IC50 (second compound 1 µM) was less than 31.6 nM. The viability, T/C [25] was 88%, the viability, T/C [26] was 65.1% and the viability, T/C [27] was 60.5%. The viability, T/C [28] was 43.6%, the viability, T/C [29] was 31.9% and the viability, T/C [30] was 6.62%. It also gave a viability, T/C [31] of 89.3%, a viability, T/C [32] of 72.4% and a viability, T/C [33] of 64.7%. For the same compound, the viability, T/C [34] was 44.9%, the viability, T/C [35] was 25.7% and the viability, T/C [36] was 8.23%. For the same compound, the viability, T/C [1] was 75.7%, the viability, T/C [2] was 62.9% and the viability, T/C [3] was 56.5%. It also gave a viability, T/C [4] of 47.7%, a viability, T/C [5] of 22.9% and a viability, T/C [6] of 5.89%. For the same compound, the viability, T/C [7] was 64.5%, the viability, T/C [8] was 61.6% and the viability, T/C [9] was 40.3%. The viability, T/C [10] was 42.9%, the viability, T/C [11] was 19.8% and the viability, T/C [12] was 3.42%. For the same compound, the viability, T/C [13] was 50.2%, the viability, T/C [14] was 50.2% and the viability, T/C [15] was 34.2%. It also gave a viability, T/C [16] of 39.2%, a viability, T/C [17] of 16.1% and a viability, T/C [18] of 1.76%. For the same compound, the viability, T/C [19] was 38.1%, the viability, T/C [20] was 29% and the viability, T/C [21] was 32.4%. The viability, T/C [22] was 24.4%, the viability, T/C [23] was 12.2% and the viability, T/C [24] was 1.17%.

Compound `C[C@@H](NC(=O)c1ncnc(N)c1Cl)c1ncc(C(=O)Nc2cc(C(F)(F)F)c(Cl)cn2)s1` + COc1c(OCCCN2CCOCC2)ccc2c3n(c(=NC(=O)c4cnc(N)nc4)nc12)CCN3 has an IC50 (second compound 0.00316 µM) greater than 10000 nM, an IC50 (second compound 0.01 µM) greater than 10000 nM and an IC50 (second compound 0.0316 µM) greater than 10000 nM. It also gave an IC50 (second compound 0.1 µM) of less than 31.6 nM, an IC50 (second compound 0.316 µM) of less than 31.6 nM and an IC50 (second compound 1 µM) of less than 31.6 nM. It also gave a viability, T/C [25] of 93.8%, a viability, T/C [26] of 91.3% and a viability, T/C [27] of 104%. For the same compound, the viability, T/C [28] was 97.4%, the viability, T/C [29] was 109% and the viability, T/C [30] was 113%. The viability, T/C [31] was 80%, the viability, T/C [32] was 85.2% and the viability, T/C [33] was 88.5%. It also gave a viability, T/C [34] of 89.4%, a viability, T/C [35] of 108% and a viability, T/C [36] of 83%. The viability, T/C [1] was 59.4%, the viability, T/C [2] was 69.3% and the viability, T/C [3] was 68.8%. For the same compound, the viability, T/C [4] was 61.6%, the viability, T/C [5] was 71.3% and the viability, T/C [6] was 36.7%. For the same compound, the viability, T/C [7] was 35.9%, the viability, T/C [8] was 38.3% and the viability, T/C [9] was 33.7%. For the same compound, the viability, T/C [10] was 35.9%, the viability, T/C [11] was 27.8% and the viability, T/C [12] was 16.2%. It also gave a viability, T/C [13] of 13.4%, a viability, T/C [14] of 12.5% and a viability, T/C [15] of 12.5%. For the same compound, the viability, T/C [16] was 13.7%, the viability, T/C [17] was 11.2% and the viability, T/C [18] was 5.99%. For the same compound, the viability, T/C [19] was 4.22%, the viability, T/C [20] was 7.01% and the viability, T/C [21] was 5.73%. The viability, T/C [22] was 4.13%, the viability, T/C [23] was 3.47% and the viability, T/C [24] was 1.26%.
